System: Crude diglycosidase
Experiment: Examination of temperature in the conversion into isoflavone aglycons by diglycosidase using soybean materials
Assay type: biochemical, Penicillium multicolor IAM7153
Parameters: Decomposition efficiency of glycitin family in roasted soy flour / Decomposition efficiency of daidzin family in roasted soy flour / Decomposition efficiency of genistin family in soymilk / Decomposition efficiency of daidzin family in soymilk / Decomposition efficiency of glycitin family in defatted soybean / Decomposition efficiency of daidzin family in defatted soybean: concentration or dose not given beside the values
Outline: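 Soybean materials (50 mg) suspended in 20 mM acetate buffer pH 4.0 reacted with crude diglycosidase diluted to 1.88 AU/mL at 80, 65, 55, 45, 37 or 30° C. Reactions stopped with ethanol at 0, 1, 3 and 6 h; isoflavone glycosides and aglycons in supernatant detected by HPLC.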

[1] = 30° C., heat treatment of enzyme no, reaction time 0 h
[2] = 30° C., heat treatment of enzyme no, reaction time 1 h
[3] = 30° C., heat treatment of enzyme no, reaction time 3 h
[4] = 30° C., heat treatment of enzyme no, reaction time 6 h
[5] = 30° C., heat treatment of enzyme yes, reaction time 6 h
[6] = 30 °C, heat treatment of enzyme: no, 0 h
[7] = 30 °C, heat treatment of enzyme: no, 1 h
[8] = 30 °C, heat treatment of enzyme: no, 3 h
[9] = 30 °C, heat treatment of enzyme: no, 6 h
[10] = 30 °C, heat treatment of enzyme: yes, 6 h
[11] = 45° C., heat treatment of enzyme no, reaction time 0 h
[12] = 45° C., heat treatment of enzyme no, reaction time 1 h
[13] = 45° C., heat treatment of enzyme no, reaction time 3 h
[14] = 45° C., heat treatment of enzyme no, reaction time 6 h
[15] = 45° C., heat treatment of enzyme yes, reaction time 6 h
[16] = 45 °C, heat treatment of enzyme: no, 0 h
[17] = 45 °C, heat treatment of enzyme: no, 1 h
[18] = 45 °C, heat treatment of enzyme: no, 3 h
[19] = 45 °C, heat treatment of enzyme: no, 6 h
[20] = 45 °C, heat treatment of enzyme: yes, 6 h
[21] = 55° C., heat treatment of enzyme no, reaction time 0 h
[22] = 55° C., heat treatment of enzyme no, reaction time 1 h
[23] = 55° C., heat treatment of enzyme no, reaction time 3 h
[24] = 55° C., heat treatment of enzyme no, reaction time 6 h
[25] = 55° C., heat treatment of enzyme yes, reaction time 6 h
[26] = 55 °C, heat treatment of enzyme: no, 0 h
[27] = 55 °C, heat treatment of enzyme: no, 1 h
[28] = 55 °C, heat treatment of enzyme: no, 3 h
[29] = 55 °C, heat treatment of enzyme: no, 6 h
[30] = 55 °C, heat treatment of enzyme: yes, 6 h
[31] = 65° C., heat treatment of enzyme no, reaction time 0 h
[32] = 65° C., heat treatment of enzyme no, reaction time 1 h
[33] = 65° C., heat treatment of enzyme no, reaction time 3 h
[34] = 65° C., heat treatment of enzyme no, reaction time 6 h
[35] = 65° C., heat treatment of enzyme yes, reaction time 6 h
[36] = 65 °C, heat treatment of enzyme: no, 0 h
[37] = 65 °C, heat treatment of enzyme: no, 1 h
[38] = 65 °C, heat treatment of enzyme: no, 3 h
[39] = 65 °C, heat treatment of enzyme: no, 6 h
[40] = 65 °C, heat treatment of enzyme: yes, 6 h
[41] = 80° C., heat treatment of enzyme no, reaction time 0 h
[42] = 80° C., heat treatment of enzyme no, reaction time 1 h
[43] = 80° C., heat treatment of enzyme no, reaction time 3 h
[44] = 80° C., heat treatment of enzyme no, reaction time 6 h
[45] = 80° C., heat treatment of enzyme yes, reaction time 6 h
[46] = 80 °C, heat treatment of enzyme: no, 0 h
[47] = 80 °C, heat treatment of enzyme: no, 1 h
[48] = 80 °C, heat treatment of enzyme: no, 3 h
[49] = 80 °C, heat treatment of enzyme: no, 6 h
[50] = 80 °C, heat treatment of enzyme: yes, 6 h

O=C(O)CC(=O)OC[C@H]1O[C@@H](Oc2cc(O)c3c(=O)c(-c4ccc(O)cc4)coc3c2)[C@H](O)[C@@H](O)[C@@H]1O [malonylgenistin, 6″-O-malonylgenistin]
Decomposition efficiency of genistin family in concentrated soybean protein [1]: not detected | Decomposition efficiency of genistin family in defatted soybean [1]: 47.0% | Decomposition efficiency of genistin family in concentrated soybean protein [2]: not detected | Decomposition efficiency of genistin family in defatted soybean [2]: 51.3% | Decomposition efficiency of genistin family in concentrated soybean protein [3]: not detected | Decomposition efficiency of genistin family in defatted soybean [3]: 49.1% | Decomposition efficiency of genistin family in concentrated soybean protein [4]: not detected | Decomposition efficiency of genistin family in defatted soybean [4]: 45.6% | Decomposition efficiency of genistin family in concentrated soybean protein [5]: not detected | Decomposition efficiency of genistin family in defatted soybean [5]: 49.5% | Decomposition efficiency of genistin family in roasted soy flour [6]: not detected | Decomposition efficiency of genistin family in soymilk [6]: 58.5% | Decomposition efficiency of genistin family in roasted soy flour [7]: not detected | Decomposition efficiency of genistin family in soymilk [7]: 56.5% | Decomposition efficiency of genistin family in roasted soy flour [8]: not detected | Decomposition efficiency of genistin family in soymilk [8]: 47.9% | Decomposition efficiency of genistin family in roasted soy flour [9]: not detected | Decomposition efficiency of genistin family in soymilk [9]: 36.1% | Decomposition efficiency of genistin family in roasted soy flour [10]: not detected | Decomposition efficiency of genistin family in soymilk [10]: 57.7% | Decomposition efficiency of genistin family in concentrated soybean protein [11]: not detected | Decomposition efficiency of genistin family in defatted soybean [11]: 47.0% | Decomposition efficiency of genistin family in concentrated soybean protein [12]: not detected | Decomposition efficiency of genistin family in defatted soybean [12]: 49.0% | Decomposition efficiency of genistin family in concentrated soybean protein [13]: not detected | Decomposition efficiency of genistin family in defatted soybean [13]: 46.8% | Decomposition efficiency of genistin family in concentrated soybean protein [14]: not detected | Decomposition efficiency of genistin family in defatted soybean [14]: 44.2% | Decomposition efficiency of genistin family in concentrated soybean protein [15]: not detected | Decomposition efficiency of genistin family in defatted soybean [15]: 48.1% | Decomposition efficiency of genistin family in roasted soy flour [16]: not detected | Decomposition efficiency of genistin family in soymilk [16]: 57.8% | Decomposition efficiency of genistin family in roasted soy flour [17]: not detected | Decomposition efficiency of genistin family in soymilk [17]: 49.4% | Decomposition efficiency of genistin family in roasted soy flour [18]: not detected | Decomposition efficiency of genistin family in soymilk [18]: 34.7% | Decomposition efficiency of genistin family in roasted soy flour [19]: not detected | Decomposition efficiency of genistin family in soymilk [19]: 20.7% | Decomposition efficiency of genistin family in roasted soy flour [20]: not detected | Decomposition efficiency of genistin family in soymilk [20]: 57.2% | Decomposition efficiency of genistin family in concentrated soybean protein [21]: not detected | Decomposition efficiency of genistin family in defatted soybean [21]: 47.0% | Decomposition efficiency of genistin family in concentrated soybean protein [22]: not detected | Decomposition efficiency of genistin family in defatted soybean [22]: 48.8% | Decomposition efficiency of genistin family in concentrated soybean protein [23]: not detected | Decomposition efficiency of genistin family in defatted soybean [23]: 46.1% | Decomposition efficiency of genistin family in concentrated soybean protein [24]: not detected | Decomposition efficiency of genistin family in defatted soybean [24]: 43.4% | Decomposition efficiency of genistin family in concentrated soybean protein [25]: not detected | Decomposition efficiency of genistin family in defatted soybean [25]: 47.8% | Decomposition efficiency of genistin family in roasted soy flour [26]: not detected | Decomposition efficiency of genistin family in soymilk [26]: 59.1% | Decomposition efficiency of genistin family in roasted soy flour [27]: not detected | Decomposition efficiency of genistin family in soymilk [27]: 46.9% | Decomposition efficiency of genistin family in roasted soy flour [28]: not detected | Decomposition efficiency of genistin family in soymilk [28]: 32.5% | Decomposition efficiency of genistin family in roasted soy flour [29]: not detected | Decomposition efficiency of genistin family in soymilk [29]: 20.4% | Decomposition efficiency of genistin family in roasted soy flour [30]: not detected | Decomposition efficiency of genistin family in soymilk [30]: 53.3% | Decomposition efficiency of genistin family in concentrated soybean protein [31]: not detected | Decomposition efficiency of genistin family in defatted soybean [31]: 47.0% | Decomposition efficiency of genistin family in concentrated soybean protein [32]: not detected | Decomposition efficiency of genistin family in defatted soybean [32]: 48.9% | Decomposition efficiency of genistin family in concentrated soybean protein [33]: not detected | Decomposition efficiency of genistin family in defatted soybean [33]: 45.2% | Decomposition efficiency of genistin family in concentrated soybean protein [34]: not detected | Decomposition efficiency of genistin family in defatted soybean [34]: 41.1% | Decomposition efficiency of genistin family in concentrated soybean protein [35]: not detected | Decomposition efficiency of genistin family in defatted soybean [35]: 39.7% | Decomposition efficiency of genistin family in roasted soy flour [36]: not detected | Decomposition efficiency of genistin family in soymilk [36]: 58.5% | Decomposition efficiency of genistin family in roasted soy flour [37]: not detected | Decomposition efficiency of genistin family in soymilk [37]: 48.9% | Decomposition efficiency of genistin family in roasted soy flour [38]: not detected | Decomposition efficiency of genistin family in soymilk [38]: 40.6% | Decomposition efficiency of genistin family in roasted soy flour [39]: not detected | Decomposition efficiency of genistin family in soymilk [39]: 31.8% | Decomposition efficiency of genistin family in roasted soy flour [40]: not detected | Decomposition efficiency of genistin family in soymilk [40]: 44.6% | Decomposition efficiency of genistin family in concentrated soybean protein [41]: not detected | Decomposition efficiency of genistin family in defatted soybean [41]: 47.0% | Decomposition efficiency of genistin family in concentrated soybean protein [42]: not detected | Decomposition efficiency of genistin family in defatted soybean [42]: 43.8% | Decomposition efficiency of genistin family in concentrated soybean protein [43]: not detected | Decomposition efficiency of genistin family in defatted soybean [43]: 32.5% | Decomposition efficiency of genistin family in concentrated soybean protein [44]: not detected | Decomposition efficiency of genistin family in defatted soybean [44]: 20.9% | Decomposition efficiency of genistin family in concentrated soybean protein [45]: not detected | Decomposition efficiency of genistin family in defatted soybean [45]: 20.1% | Decomposition efficiency of genistin family in roasted soy flour [46]: not detected | Decomposition efficiency of genistin family in soymilk [46]: 57.8% | Decomposition efficiency of genistin family in roasted soy flour [47]: not detected | Decomposition efficiency of genistin family in soymilk [47]: 50.4% | Decomposition efficiency of genistin family in roasted soy flour [48]: not detected | Decomposition efficiency of genistin family in soymilk [48]: 37.7% | Decomposition efficiency of genistin family in roasted soy flour [49]: not detected | Decomposition efficiency of genistin family in soymilk [49]: 24.1% | Decomposition efficiency of genistin family in roasted soy flour [50]: not detected | Decomposition efficiency of genistin family in soymilk [50]: 22.9%
